# How the values were obtained:
# control rats = experiment: Cocaine IVSA (intravenous self-administration), control rats; type: in vivo, rat
# [1] = test system: [^18F]fallypride binding at D2/D3 receptors (extracellular dopamine); experiment: [^18F]fallypride PET, rats with coca-5HT3 in the LHb and controls; type: in vivo, rat
# Method: Male Sprague–Dawley rats were anaesthetized with isoflurane (1.5-2%) and then placed onto a stereotaxic frame (Kopf) and injected with AAV5-Syn::coca-5HT3-IRES-mCherry (0.5 µl, 4.95 × 10^12 vg per ml) into the LHb (AP relative to bregma, −3.8 mm; ML, ±0.7 mm; DV, −5.25 mm, at a 10° angle) (n = 5) or underwent sham surgery (n = 9). Male Th-cre rats were anaesthetized with isoflurane (1.5–2%) and then placed onto a stereotaxic frame (Kopf) and injected with AAV1-Syn::FLEX-coca-GlyR-IRES-mCherry (0.5 µl, 6 × 10^12 vg per ml) into the VTA (AP, −6.0 mm relative to bregma; ML, ±1.9 mm; DV, −8.3 mm at a 10° angle) (n = 9) or underwent sham surgery (n = 6). Approximately 3 weeks later, the rats were anaesthetized, placed inside the PET scanner (Mediso NanoScan PET/CT), injected with [^18F]fallypride (~13 MBq) and then scanned using PET. [^18F]fallypride reaches steady-state by around 45 min after its injection and then remains stable for at least 150 min[60]. […] The PET data were reconstructed and corrected for dead-time and radioactive decay and then co-registered to an magnetic resonance imaging template as previously described[46],[60],[61]. Co-registered images were analysed using one-way ANOVA and the resulting parametric images were filtered for statistically significant (P < 0.01) clusters larger than 100 contiguous voxels. All statistical parametric mapping (SPM) analyses were performed using MATLAB R2016 (MathWorks) and SPM12 (University College London)[62]. Next, additional quantitative assessments of PET images were performed using the PMOD software environment (PMOD Technologies). We generated time–activity curves using the co-registered dynamic PET images and the significant voxel clusters defined by the voxel-wise SPM analysis as the volume of interest. The standardized uptake value (SUV) was calculated using the equation SUV = C/(dose/BW) where C is the tissue concentration of [^18F]fallypride (kBq cm^−3), dose is the administered dose (MBq) and BW (kg) is the animal’s body weight. Statistical analyses were performed using Prism 10 (GraphPad).
# [2] = test system: rats with coca-5HT3 in the LHb; experiment: Cocaine IVSA (intravenous self-administration); type: in vivo, rat; settings: Coca-5HT3 rats
# [3] = test system: coca-5HT3 in cultured hippocampal neurons; experiment: Current-clamp of cultured hippocampal neurons expressing coca-5HT3; type: cell-based, rat; settings: for DmV MEAN: coca-5HT3-IRES-EGFP, MEAN of cells
smiles,measurement,setting,value
COC(=O)[C@H]1[C@@H](OC(=O)c2ccccc2)C[C@@H]2CC[C@H]1N2C [cocaine],"Sheet 3g, Mean (per-rat counts at each dose)",control rats; Dose 0.0625,37.2
same,"Sheet 3h, Mean (sheet 3g count x dose, intake)",control rats; Dose 0.0625,2.325
same,"Sheet 3g, Mean (per-rat counts at each dose)",control rats; Dose 0.125,69.7333
same,"Sheet 3h, Mean (sheet 3g count x dose, intake)",control rats; Dose 0.125,8.717
same,"Sheet 3g, Mean (per-rat counts at each dose)",control rats; Dose 0.25,50.5385
same,"Sheet 3h, Mean (sheet 3g count x dose, intake)",control rats; Dose 0.25,12.6346
same,"Sheet 3g, Mean (per-rat counts at each dose)",control rats; Dose 0.5,27.6667
same,"Sheet 3h, Mean (sheet 3g count x dose, intake)",control rats; Dose 0.5,13.8333
same,"Sheet 3g, Mean (per-rat counts at each dose)",control rats; Dose 1,15
same,"Sheet 3h, Mean (sheet 3g count x dose, intake)",control rats; Dose 1,15
same,"Cerebellum, Mean","[1]; Coca-5HT3, Time 60 min",111.27
same,"Striatum, Mean","[1]; Coca-5HT3, Time 60 min",100.47
same,"Cerebellum, Mean","[1]; Coca-5HT3, Time 63 min",107.441
same,"Striatum, Mean","[1]; Coca-5HT3, Time 63 min",99.116
same,"Cerebellum, Mean","[1]; Coca-5HT3, Time 66 min",105.193
same,"Striatum, Mean","[1]; Coca-5HT3, Time 66 min",105.45
same,"Cerebellum, Mean","[1]; Coca-5HT3, Time 69 min",101.891
same,"Striatum, Mean","[1]; Coca-5HT3, Time 69 min",101.914
same,"Cerebellum, Mean","[1]; Coca-5HT3, Time 72 min",100.511
same,"Striatum, Mean","[1]; Coca-5HT3, Time 72 min",99.6684
same,"Cerebellum, Mean","[1]; Coca-5HT3, Time 75 min",97.2849
same,"Striatum, Mean","[1]; Coca-5HT3, Time 75 min",101.446
same,"Cerebellum, Mean","[1]; Coca-5HT3, Time 78 min",98.3773
same,"Striatum, Mean","[1]; Coca-5HT3, Time 78 min",97.1795
same,"Cerebellum, Mean","[1]; Coca-5HT3, Time 81 min",97.6857
same,"Striatum, Mean","[1]; Coca-5HT3, Time 81 min",99.4438
same,"Cerebellum, Mean","[1]; Coca-5HT3, Time 84 min",92.2137
same,"Striatum, Mean","[1]; Coca-5HT3, Time 84 min",99.5545
same,"Cerebellum, Mean","[1]; Coca-5HT3, Time 87 min",94.6333
same,"Striatum, Mean","[1]; Coca-5HT3, Time 87 min",100.176
same,"Cerebellum, Mean","[1]; Coca-5HT3, Time 90 min",93.4987
same,"Striatum, Mean","[1]; Coca-5HT3, Time 90 min",95.582
same,"Cerebellum, Mean","[1]; Coca-5HT3, Time 92 min",99.4012
same,"Striatum, Mean","[1]; Coca-5HT3, Time 92 min",95.8906
same,"Cerebellum, Mean","[1]; Coca-5HT3, Time 94 min",96.5331
same,"Striatum, Mean","[1]; Coca-5HT3, Time 94 min",92.7294
same,"Cerebellum, Mean","[1]; Coca-5HT3, Time 96 min",96.1496
same,"Striatum, Mean","[1]; Coca-5HT3, Time 96 min",97.7961
same,"Cerebellum, Mean","[1]; Coca-5HT3, Time 98 min",96.6515
same,"Striatum, Mean","[1]; Coca-5HT3, Time 98 min",98.5867
same,"Cerebellum, Mean","[1]; Coca-5HT3, Time 100 min",92.3336
same,"Striatum, Mean","[1]; Coca-5HT3, Time 100 min",97.1381
same,"Cerebellum, Mean","[1]; Coca-5HT3, Time 104 min",94.2368
same,"Striatum, Mean","[1]; Coca-5HT3, Time 104 min",97.3152
same,"Cerebellum, Mean","[1]; Coca-5HT3, Time 106 min",94.1983
same,"Striatum, Mean","[1]; Coca-5HT3, Time 106 min",95.2722
same,"Cerebellum, Mean","[1]; Coca-5HT3, Time 110 min",94.753
same,"Striatum, Mean","[1]; Coca-5HT3, Time 110 min",92.686
same,"Cerebellum, Mean","[1]; Coca-5HT3, Time 112 min",89.5645
same,"Striatum, Mean","[1]; Coca-5HT3, Time 112 min",94.0331
same,"Cerebellum, Mean","[1]; Coca-5HT3, Time 116 min",89.6884
same,"Striatum, Mean","[1]; Coca-5HT3, Time 116 min",93.7732
same,"Cerebellum, Mean","[1]; Coca-5HT3, Time 118 min",92.5349
same,"Striatum, Mean","[1]; Coca-5HT3, Time 118 min",94.2486
same,"Cerebellum, Mean","[1]; Coca-5HT3, Time 120 min",85.32
same,"Striatum, Mean","[1]; Coca-5HT3, Time 120 min",92.7482
same,"Cerebellum, Mean","[1]; Control, Time 60 min",103.946
same,"Striatum, Mean","[1]; Control, Time 60 min",104.425
same,"Cerebellum, Mean","[1]; Control, Time 63 min",103.573
same,"Striatum, Mean","[1]; Control, Time 63 min",105.053
same,"Cerebellum, Mean","[1]; Control, Time 66 min",103.781
same,"Striatum, Mean","[1]; Control, Time 66 min",101.615
same,"Cerebellum, Mean","[1]; Control, Time 69 min",101.695
same,"Striatum, Mean","[1]; Control, Time 69 min",102.645
same,"Cerebellum, Mean","[1]; Control, Time 72 min",100.786
same,"Striatum, Mean","[1]; Control, Time 72 min",99.1445
same,"Cerebellum, Mean","[1]; Control, Time 75 min",98.0752
same,"Striatum, Mean","[1]; Control, Time 75 min",97.188
same,"Cerebellum, Mean","[1]; Control, Time 78 min",100.961
same,"Striatum, Mean","[1]; Control, Time 78 min",99.7495
same,"Cerebellum, Mean","[1]; Control, Time 81 min",99.7275
same,"Striatum, Mean","[1]; Control, Time 81 min",97.1175
same,"Cerebellum, Mean","[1]; Control, Time 84 min",97.0682
same,"Striatum, Mean","[1]; Control, Time 84 min",97.2682
same,"Cerebellum, Mean","[1]; Control, Time 87 min",95.0129
same,"Striatum, Mean","[1]; Control, Time 87 min",98.2036
same,"Cerebellum, Mean","[1]; Control, Time 90 min",95.374
same,"Striatum, Mean","[1]; Control, Time 90 min",97.5908
same,"Cerebellum, Mean","[1]; Control, Time 92 min",99.2942
same,"Striatum, Mean","[1]; Control, Time 92 min",96.7723
same,"Cerebellum, Mean","[1]; Control, Time 94 min",98.6955
same,"Striatum, Mean","[1]; Control, Time 94 min",94.2988
same,"Cerebellum, Mean","[1]; Control, Time 96 min",97.5545
same,"Striatum, Mean","[1]; Control, Time 96 min",90.3041
same,"Cerebellum, Mean","[1]; Control, Time 98 min",95.1481
same,"Striatum, Mean","[1]; Control, Time 98 min",92.8392
same,"Cerebellum, Mean","[1]; Control, Time 100 min",95.7886
same,"Striatum, Mean","[1]; Control, Time 100 min",87.2087
same,"Cerebellum, Mean","[1]; Control, Time 104 min",93.5542
same,"Striatum, Mean","[1]; Control, Time 104 min",88.7106
same,"Cerebellum, Mean","[1]; Control, Time 106 min",95.3248
same,"Striatum, Mean","[1]; Control, Time 106 min",84.6758
same,"Cerebellum, Mean","[1]; Control, Time 110 min",94.4655
same,"Striatum, Mean","[1]; Control, Time 110 min",84.755
same,"Cerebellum, Mean","[1]; Control, Time 112 min",92.6418
same,"Striatum, Mean","[1]; Control, Time 112 min",85.4315
same,"Cerebellum, Mean","[1]; Control, Time 116 min",92.1838
same,"Striatum, Mean","[1]; Control, Time 116 min",85.918
same,"Cerebellum, Mean","[1]; Control, Time 118 min",92.0673
same,"Striatum, Mean","[1]; Control, Time 118 min",82.9007
same,"Cerebellum, Mean","[1]; Control, Time 120 min",91.4483
same,"Striatum, Mean","[1]; Control, Time 120 min",84.8826
same,"[^18F]fallypride binding, cocaine versus saline","[1]; control rats, cocaine 3 mg per kg i.v., nucleus accumbens and ventromedial dorsal striatum voxels",significantly decreased
same,"Sheet 3g, Mean (per-rat counts at each dose)",[2]; Dose 0.0625,32.0909
same,"Sheet 3h, Mean (sheet 3g count x dose, intake)",[2]; Dose 0.0625,2.006
same,"Sheet 3g, Mean (per-rat counts at each dose)",[2]; Dose 0.125,43.1818
same,"Sheet 3h, Mean (sheet 3g count x dose, intake)",[2]; Dose 0.125,5.398
same,"Sheet 3g, Mean (per-rat counts at each dose)",[2]; Dose 0.25,30.2727
same,"Sheet 3h, Mean (sheet 3g count x dose, intake)",[2]; Dose 0.25,7.568
same,"Sheet 3g, Mean (per-rat counts at each dose)",[2]; Dose 0.5,19.0909
same,"Sheet 3h, Mean (sheet 3g count x dose, intake)",[2]; Dose 0.5,9.545
same,"Sheet 3g, Mean (per-rat counts at each dose)",[2]; Dose 1,10.8182
same,"Sheet 3h, Mean (sheet 3g count x dose, intake)",[2]; Dose 1,10.8182
same,current required to elicit an action potential (rheobase),[3]; 3 µM cocaine,reduced
same,DmV MEAN,[3]; cocaine 0.1 uM,0.3818 mV
same,DmV MEAN,[3]; cocaine 0.3 uM,1.236 mV
same,DmV MEAN,[3]; cocaine 1 uM,4.155 mV
same,DmV MEAN,[3]; cocaine 3 uM,11.3545 mV
same,DmV MEAN,[3]; cocaine 10 uM,12.55 mV
same,neuronal firing,[3]; cocaine 1–3 µM,increased
same,depolarization of neurons expressing coca-5HT3,[3]; current-clamp,depolarized neurons in a dose-dependent manner
